Results published in patent US10604554B2, “Double-acylated GLP-1 derivatives” (Novo Nordisk A/S, priority 2012, dated 2020).

Columns and labels:
human GLP-1 receptor [1] = molecular target: T1, human GLP-1 receptor (Homo sapiens, UniProt P43220); assay: GLP-1 receptor binding (SPA, displacement of 125I-GLP-1)
T1 construct: expressed in transfected cells; host or cells: BHK cells, clone FCW467-12A/KZ10-1 (parent line BHKTS13), further transfected with CRE luciferase
How it was run: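 Membranes from a stably transfected hamster cell line, 5-10 ug protein/sample, with WGA SPA beads and [125I]-GLP-1(7-36)NH2 at 0.06 nM final. Incubated 120 min at 30 °C with shaking, then counted.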

human GLP-1 receptor [2] = molecular target: T1, human GLP-1 receptor; assay: In vitro potency (CRE luciferase; whole cells); assay type: cell-based; design: EC50/pM (ratio 1% HSA/0% HSA): unit not given here; conditions: for EC50: BHK cells; for EC50/pM (ratio 1% HSA/0% HSA): ratio of EC50 at 1% HSA to EC50 at 0% HSA
How it was run: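 Stably transfected BHK cells carrying human GLP-1R and a CRE–firefly luciferase reporter, 5×10^3 cells/well in assay medium, run with 0% or 1% HSA in assay buffer.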

[3] = Receptor binding affinity IC50 (high HSA), 2.0% HSA (high albumin)
[4] = Receptor binding affinity IC50 (low HSA), 0.001% HSA (low albumin)
[5] = In vitro potency (CRE luciferase) EC50 (0% HSA), 0% HSA
[6] = In vitro potency (CRE luciferase) EC50 (1% HSA), 1% HSA

T1 sequence (P43220 24-463): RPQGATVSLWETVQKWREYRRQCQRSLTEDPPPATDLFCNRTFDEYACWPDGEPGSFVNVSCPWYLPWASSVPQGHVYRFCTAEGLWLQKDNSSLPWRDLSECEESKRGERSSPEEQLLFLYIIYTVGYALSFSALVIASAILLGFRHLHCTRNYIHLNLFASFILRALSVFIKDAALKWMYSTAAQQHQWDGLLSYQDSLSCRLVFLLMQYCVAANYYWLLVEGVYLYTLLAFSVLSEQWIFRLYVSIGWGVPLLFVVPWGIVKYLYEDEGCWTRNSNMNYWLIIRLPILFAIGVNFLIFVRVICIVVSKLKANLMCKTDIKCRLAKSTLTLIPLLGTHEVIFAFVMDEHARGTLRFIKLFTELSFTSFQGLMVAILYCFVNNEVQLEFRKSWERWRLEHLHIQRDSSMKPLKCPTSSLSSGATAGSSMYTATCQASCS

Structure (SMILES): CC[C@H](C)[C@H](NC(=O)[C@H](Cc1ccccc1)NC(=O)[C@H](CCC(=O)O)NC(=O)[C@H](CCCCNC(=O)[C@@H](N)CCCCNC(=O)[C@@H](N)CCCCNC(=O)[C@H](CO)NC(=O)[C@H](CO)NC(=O)CC[C@H](NC(=O)CCCCCCCCCCOc1ccc(C(=O)O)cc1)C(=O)O)NC(=O)[C@H](C)NC(=O)[C@H](C)NC(=O)[C@H](CCC(N)=O)NC(=O)CNC(=O)[C@H](CCC(=O)O)NC(=O)[C@H](CC(C)C)NC(=O)[C@H](Cc1ccc(O)cc1)NC(=O)[C@H](CO)NC(=O)[C@H](CO)NC(=O)[C@@H](NC(=O)[C@H](CC(=O)O)NC(=O)[C@H](CO)NC(=O)[C@@H](NC(=O)[C@H](Cc1ccccc1)NC(=O)[C@@H](NC(=O)CNC(=O)[C@H](CCC(=O)O)NC(=O)C(C)(C)NC(=O)[C@@H](N)Cc1c[nH]cn1)[C@@H](C)O)[C@@H](C)O)C(C)C)C(=O)N[C@@H](C)C(=O)N[C@@H](Cc1c[nH]c2ccccc12)C(=O)N[C@@H](CC(C)C)C(=O)N[C@H](C(=O)N[C@@H](CCCNC(=N)N)C(=O)NCC(=O)N[C@@H](CCCNC(=N)N)C(=O)N[C@@H](CCCCNC(=O)[C@@H](N)CCCCNC(=O)[C@@H](N)CCCCNC(=O)[C@H](CO)NC(=O)[C@H](CO)NC(=O)CC[C@H](NC(=O)CCCCCCCCCCOc1ccc(C(=O)O)cc1)C(=O)O)C(=O)O)C(C)C [Example 35]
- IC50 (human GLP-1 receptor [1]; [3]): 36000 pM
- IC50 (human GLP-1 receptor [1]; [4]): 80 pM
- EC50 (human GLP-1 receptor [2]; [5]): 5.5 pM

Structure (SMILES): CC[C@H](C)[C@H](NC(=O)[C@H](Cc1ccccc1)NC(=O)[C@H](CCC(=O)O)NC(=O)[C@H](CCCCNC(=O)[C@@H](N)CCCCNC(=O)[C@@H](N)CCCCNC(=O)CC[C@H](NC(=O)CCCCCCCCCOc1ccc(C(=O)O)cc1)C(=O)O)NC(=O)[C@H](C)NC(=O)[C@H](C)NC(=O)[C@H](CCC(N)=O)NC(=O)CNC(=O)[C@H](CCC(=O)O)NC(=O)[C@H](CC(C)C)NC(=O)[C@H](Cc1ccc(O)cc1)NC(=O)[C@H](CO)NC(=O)[C@H](CO)NC(=O)[C@@H](NC(=O)[C@H](CC(=O)O)NC(=O)[C@H](CO)NC(=O)[C@@H](NC(=O)[C@H](Cc1ccccc1)NC(=O)[C@@H](NC(=O)CNC(=O)[C@H](CCC(=O)O)NC(=O)C(C)(C)NC(=O)[C@@H](N)Cc1c[nH]cn1)[C@@H](C)O)[C@@H](C)O)C(C)C)C(=O)N[C@@H](C)C(=O)N[C@@H](Cc1c[nH]cn1)C(=O)N[C@@H](CC(C)C)C(=O)N[C@H](C(=O)N[C@@H](CCC(N)=O)C(=O)NCC(=O)N[C@@H](CCCNC(=N)N)C(=O)N[C@@H](CCCCNC(=O)[C@@H](N)CCCCNC(=O)[C@@H](N)CCCCNC(=O)CC[C@H](NC(=O)CCCCCCCCCOc1ccc(C(=O)O)cc1)C(=O)O)C(=O)O)C(C)C [Example 32, N^ε26-[(2S)-2-amino-6-[[(2S)-2-amino-6-[[(4S)-4-carboxy-4-[10-(4-carboxyphenoxy)decanoylamino]butanoyl]amino]hexanoyl]amino]hexanoyl], N^ε37-[(2S)-2-amino-6-[[(2S)-2-amino-6-[[(4S)-4-carboxy-4-[10-(4-carboxyphenoxy)decanoylamino]butanoyl]amino]hexanoyl]amino]hexanoyl]-[Aib^8,His^31,Gln^34,Lys^37]-GLP-1-(7-37)-peptide]
- IC50 (human GLP-1 receptor [1]; [3]): 27000 pM
- IC50 (human GLP-1 receptor [1]; [4]): 1570 pM
- EC50 (human GLP-1 receptor [2]; [5]): 11 pM
- EC50 (human GLP-1 receptor [2]; [6]): 162 pM
- EC50/pM (ratio 1% HSA/0% HSA) (human GLP-1 receptor [2]): 14

Structure (SMILES): CC[C@H](C)[C@H](NC(=O)[C@H](Cc1ccccc1)NC(=O)[C@H](CCC(=O)O)NC(=O)[C@H](CCCCNC(=O)[C@@H](N)CCCCNC(=O)[C@H](CO)NC(=O)CNC(=O)[C@H](CO)NC(=O)CC[C@H](NC(=O)CCCCCCCCCCCOc1ccc(C(=O)O)cc1)C(=O)O)NC(=O)[C@H](C)NC(=O)[C@H](C)NC(=O)[C@H](CCC(N)=O)NC(=O)CNC(=O)[C@H](CCC(=O)O)NC(=O)[C@H](CC(C)C)NC(=O)[C@H](Cc1ccc(O)cc1)NC(=O)[C@H](CO)NC(=O)[C@H](CO)NC(=O)[C@@H](NC(=O)[C@H](CC(=O)O)NC(=O)[C@H](CO)NC(=O)[C@@H](NC(=O)[C@H](Cc1ccccc1)NC(=O)[C@@H](NC(=O)CNC(=O)[C@H](CCC(=O)O)NC(=O)C(C)(C)NC(=O)CCc1c[nH]cn1)[C@@H](C)O)[C@@H](C)O)C(C)C)C(=O)N[C@@H](C)C(=O)N[C@@H](Cc1c[nH]c2ccccc12)C(=O)N[C@@H](CC(C)C)C(=O)N[C@H](C(=O)N[C@@H](CCCNC(=N)N)C(=O)NCC(=O)N[C@@H](CCCNC(=N)N)C(=O)N[C@@H](CCCCNC(=O)[C@@H](N)CCCCNC(=O)[C@H](CO)NC(=O)CNC(=O)[C@H](CO)NC(=O)CC[C@H](NC(=O)CCCCCCCCCCCOc1ccc(C(=O)O)cc1)C(=O)O)C(=O)O)C(C)C [Example 25]
- IC50 (human GLP-1 receptor [1]; [3]): 274000 pM
- EC50 (human GLP-1 receptor [2]; [6]): 124 pM

Structure (SMILES): CC[C@H](C)[C@H](NC(=O)[C@H](Cc1ccccc1)NC(=O)[C@H](CCC(=O)O)NC(=O)[C@H](CCCCNC(=O)[C@@H](N)CCCCNC(=O)[C@@H](N)CCCCNC(=O)CC[C@H](NC(=O)CCCCCCCCCCOc1ccc(C(=O)O)cc1)C(=O)O)NC(=O)[C@H](C)NC(=O)[C@H](C)NC(=O)[C@H](CCC(N)=O)NC(=O)CNC(=O)[C@H](CCC(=O)O)NC(=O)[C@H](CC(C)C)NC(=O)[C@H](Cc1ccc(O)cc1)NC(=O)[C@H](CO)NC(=O)[C@H](CO)NC(=O)[C@@H](NC(=O)[C@H](CC(=O)O)NC(=O)[C@H](CO)NC(=O)[C@@H](NC(=O)[C@H](Cc1ccccc1)NC(=O)[C@@H](NC(=O)CNC(=O)[C@H](CCC(=O)O)NC(=O)C(C)(C)NC(=O)[C@@H](N)Cc1c[nH]cn1)[C@@H](C)O)[C@@H](C)O)C(C)C)C(=O)N[C@@H](C)C(=O)N[C@@H](Cc1c[nH]cn1)C(=O)N[C@@H](CC(C)C)C(=O)N[C@H](C(=O)N[C@@H](CCC(N)=O)C(=O)NCC(=O)N[C@@H](CCCNC(=N)N)C(=O)N[C@@H](CCCCNC(=O)[C@@H](N)CCCCNC(=O)[C@@H](N)CCCCNC(=O)CC[C@H](NC(=O)CCCCCCCCCCOc1ccc(C(=O)O)cc1)C(=O)O)C(=O)O)C(C)C [Example 31, N^ε26-[(2S)-2-amino-6-[[(2S)-2-amino-6-[[(4S)-4-carboxy-4-[11-(4-carboxyphenoxy)undecanoylamino]butanoyl]amino]hexanoyl]amino]hexanoyl], N^ε37-[(2S)-2-amino-6-[[(2S)-2-amino-6-[[(4S)-4-carboxy-4-[11-(4-carboxyphenoxy)undecanoylamino]butanoyl]amino]hexanoyl]amino]hexanoyl]-[Aib^8,His^31,Gln^34,Lys^37]-GLP-1-(7-37)-peptide]
- IC50 (human GLP-1 receptor [1]; [3]): 40000 pM
- IC50 (human GLP-1 receptor [1]; [4]): 760 pM
- EC50 (human GLP-1 receptor [2]; [6]): 550 pM
- EC50/pM (ratio 1% HSA/0% HSA) (human GLP-1 receptor [2]): 82

Structure (SMILES): CC[C@H](C)[C@H](NC(=O)[C@H](Cc1ccccc1)NC(=O)[C@H](CCC(=O)O)NC(=O)[C@H](CCCCNC(=O)[C@@H](N)CCCCNC(=O)CC[C@H](NC(=O)CC[C@H](NC(=O)CC[C@H](NC(=O)CCCCCCCCCOc1ccc(C(=O)O)cc1)C(=O)O)C(=O)O)C(=O)O)NC(=O)[C@H](C)NC(=O)[C@H](C)NC(=O)[C@H](CCC(N)=O)NC(=O)CNC(=O)[C@H](CCC(=O)O)NC(=O)[C@H](CC(C)C)NC(=O)[C@H](Cc1ccc(O)cc1)NC(=O)[C@H](CO)NC(=O)[C@H](CO)NC(=O)[C@@H](NC(=O)[C@H](CC(=O)O)NC(=O)[C@H](CO)NC(=O)[C@@H](NC(=O)[C@H](Cc1ccccc1)NC(=O)[C@@H](NC(=O)CNC(=O)[C@H](CCC(=O)O)NC(=O)C(C)(C)NC(=O)[C@@H](N)Cc1c[nH]cn1)[C@@H](C)O)[C@@H](C)O)C(C)C)C(=O)N[C@@H](C)C(=O)N[C@@H](Cc1c[nH]c2ccccc12)C(=O)N[C@@H](CC(C)C)C(=O)N[C@H](C(=O)N[C@@H](CCCNC(=N)N)C(=O)NCC(=O)N[C@@H](CCCNC(=N)N)C(=O)N[C@@H](CCCCNC(=O)[C@@H](N)CCCCNC(=O)CC[C@H](NC(=O)CC[C@H](NC(=O)CC[C@H](NC(=O)CCCCCCCCCOc1ccc(C(=O)O)cc1)C(=O)O)C(=O)O)C(=O)O)C(=O)O)C(C)C [Example 8, N^ε26-[(2S)-2-amino-6-[[(4S)-4-carboxy-4-[[(4S)-4-carboxy-4-[[(4S)-4-carboxy-4-[10-(4-carboxyphenoxy)decanoylamino]butanoyl]amino]butanoyl]amino]butanoyl]amino]hexanoyl], N^ε37-[(2S)-2-amino-6-[[(4S)-4-carboxy-4-[[(4S)-4-carboxy-4-[[(4S)-4-carboxy-4-[10-(4-carboxyphenoxy)decanoylamino]butanoyl]amino]butanoyl]amino]butanoyl]amino]hexanoyl]-[Aib^8,Arg^34,Lys^37]-GLP-1-(7-37)-peptide]
- IC50 (human GLP-1 receptor [1]; [3]): 269000 pM
- IC50 (human GLP-1 receptor [1]; [4]): 680 pM
- EC50 (human GLP-1 receptor [2]; [5]): 2.6 pM
- EC50 (human GLP-1 receptor [2]; [6]): 45 pM
